Experimental data: patent US12371454B2, “Cyclic peptide compound having Kras inhibitory action” (priority 2019, dated 2025)
Starred links: 1 amine or outer side, 2 acyl side, 3 side chain; linkers in the order of their positions; H or OH if unused. Positions of bridges follow the written chain, without caps; N, C: chain ends. Non-standard residues stand in square brackets, D forms with d. Residues, ends and D or L forms follow the SMILES beside them. *: point of attachment. hPhe(3-Cl-4-CF3) = N[C@@H](CCc1ccc(C(F)(F)F)c(Cl)c1)C(=O)O; NMeDab(N,N-(CH2CF2CH2)) = CN[C@@H](CCN1CC(F)(F)C1)C(=O)O; hPhe(3-F,4-CF3) = N[C@@H](CCc1ccc(C(F)(F)F)c(F)c1)C(=O)O; NMePhe(4-CF3) = CN[C@@H](Cc1ccc(C(F)(F)F)cc1)C(=O)O; hPhe(4-CF3) = N[C@@H](CCc1ccc(C(F)(F)F)cc1)C(=O)O; Phe(2-CF3) = N[C@@H](Cc1ccccc1C(F)(F)F)C(=O)O; NMePhe(4-Cl) = CN[C@@H](Cc1ccc(Cl)cc1)C(=O)O; NMePhe(4-Me) = CN[C@@H](Cc1ccc(C)cc1)C(=O)O; NMePhe(2-Cl) = CN[C@@H](Cc1ccccc1Cl)C(=O)O; NMedβ3hAla = C[C@H](CC(=O)[*:2])N(C)[*:1]; NMeGly(cPent) = CN[C@H](C(=O)O)C1CCCC1; Phe(3-I) = N[C@@H](Cc1cccc(I)c1)C(=O)O; NMeCha = CN[C@@H](CC1CCCCC1)C(=O)O; NMeF = CN[C@@H](Cc1ccccc1)C(=O)O; NMeI = CC[C@H](C)[C@H](NC)C(=O)O; NMeD = CN[C@@H](CC(=O)O)C(=O)O; NMeL = CN[C@@H](CC(C)C)C(=O)O; NMeV = CN[C@H](C(=O)O)C(C)C; d(β3hA) = C[C@@H](N)CC(=O)O; Pip = O=C(O)[C@@H]1CCCCN1; NMeA = CN[C@@H](C)C(=O)O; NMeAib = CNC(C)(C)C(=O)O; Piperidide = C1CCN(*)CC1; Pra = C#CC[C@H](N)C(=O)O; dNMeA = CN[C@H](C)C(=O)O; Ac5c = NC1(C(=O)O)CCCC1; Aze = O=C(O)[C@@H]1CCN1; Thp = NC1(C(=O)O)CCOCC1; Sar = CNCC(=O)O

What follows are compounds tested against T1, Kras and SOS1 (biotin-tagged human Kras loaded with GDP, His-tagged human SOS1) (Homo sapiens, UniProt P01116, G12D) (assay: Protein-protein interaction inhibition between Kras and SOS1 (KrasGl2D-SOS PPI) using AlphaScreen). Conditions: AlphaScreen; biotin-tagged human Kras loaded with GDP, His-tagged human SOS1; read-out: KRAS G12D-SOS PPI IC50.
T1 construct: made in house; host or cells: E. coli (stated for Kras only)
Assay type: binding
Procedure, shortened: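 Binding between SOS1 and Kras is detected as bead-proximity luminescence: illuminate Ni-conjugated donors (680 nm), collect 520-620 nm emission from streptavidin-conjugated acceptors; Kras carries biotin and GDP loaded after purification, SOS1 carries a His tag.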

T1 sequence (P01116 1-188 isoform P01116-2 G12D): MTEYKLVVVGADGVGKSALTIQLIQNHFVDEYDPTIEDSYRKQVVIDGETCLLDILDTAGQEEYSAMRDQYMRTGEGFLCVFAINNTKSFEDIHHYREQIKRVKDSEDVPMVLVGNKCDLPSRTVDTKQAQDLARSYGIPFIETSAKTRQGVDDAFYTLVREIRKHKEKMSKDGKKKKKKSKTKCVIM

Compared with `CC[C@H](C)[C@@H]1NC(=O)[C@H](C)N(C)C(=O)C[C@@H](C(=O)N2CCCCC2)NC(=O)[C@H](C(C)C)N(C)C(=O)[C@H](Cc2ccccc2)N(C)C(=O)[C@H](CC(C)C)N(C)C(=O)[C@H](CCc2ccc(C(F)(F)F)cc2)NC(=O)CN(C)C(=O)[C@H](Cc2ccc(Cl)cc2)N(C)C(=O)CN(C)C(=O)CN(C)C1=O` [Compound 752] ([NMeA]I[Sar][Sar][NMePhe(4-Cl)][Sar][hPhe(4-CF3)][NMeL][NMeF][NMeV]D-Piperidide; lactam N-11), `C#CC[C@@H]1NC(=O)[C@H](Cc2cccc(I)c2)NC(=O)CN(C)C(=O)[C@H](Cc2ccc(C(F)(F)F)cc2)N(C)C(=O)CN(C)C(=O)CN(C)C(=O)[C@H]([C@@H](C)CC)NC(=O)[C@H](CC(C)C)N(C)C(=O)C[C@@H](C(=O)N2CCCCC2)N(C)C(=O)[C@H](CC(C)C)NC(=O)C(C)(C)N(C)C1=O` [Compound 1361] ([NMeL]I[Sar][Sar][NMePhe(4-CF3)][Sar][Phe(3-I)][Pra][NMeAib]L[NMeD]-Piperidide; lactam N-11) is 8.3-fold lower in IC50: 200 nM for the first, 24 nM for the second.

Compared with `CC[C@H](C)[C@@H]1NC(=O)[C@H](CC(C)C)N(C)C(=O)C[C@@H](C(=O)N2CCCCC2)N(C)C(=O)[C@H](CC(C)C)NC(=O)C(C)(C)N(C)C(=O)[C@H](Cc2ccccc2C(F)(F)F)NC(=O)[C@H](Cc2cccc(I)c2)NC(=O)CN(C)C(=O)[C@H](Cc2ccc(C)cc2)N(C)C(=O)[C@@H]2CCN2C(=O)CN(C)C1=O` [Compound 791] ([NMeL]I[Sar][Aze][NMePhe(4-Me)][Sar][Phe(3-I)][Phe(2-CF3)][NMeAib]L[NMeD]-Piperidide; lactam N-11), `CC[C@H](C)[C@@H]1NC(=O)[C@H](CC(C)C)N(C)C(=O)C[C@@H](C)N(C)C(=O)[C@H](CC(C)C)NC(=O)C(C)(C)N(C)C(=O)[C@H](CC(C)C)NC(=O)[C@H](CCc2ccc(C(F)(F)F)c(Cl)c2)NC(=O)[C@@H](C)N(C)C(=O)[C@H](Cc2ccc(C)cc2)N(C)C(=O)[C@@H]2CCN2C(=O)CN(C)C1=O` [Compound 1394] (cyclo([Aze][NMePhe(4-Me)][dNMeA][hPhe(3-Cl-4-CF3)]L[NMeAib]L[NMedβ3hAla][NMeL]I[Sar])) is 2.5-fold lower in IC50: 320 nM for the first, 130 nM for the second. The second is the more potent here.

Compared with `CC[C@H](C)[C@@H]1NC(=O)[C@H](C)N(C)C(=O)C[C@@H](C(=O)N2CCCCC2)N(C)C(=O)[C@H](C(C)C)N(C)C(=O)[C@H](CC(C)C)NC(=O)[C@H](CCN2CC(F)(F)C2)N(C)C(=O)[C@H](CCc2ccc(C(F)(F)F)c(Cl)c2)NC(=O)CN(C)C(=O)[C@H](CC2CCCCC2)N(C)C(=O)CN(C)C(=O)CN(C)C1=O` [Compound 331] ([NMeA]I[Sar][Sar][NMeCha][Sar][hPhe(3-Cl-4-CF3)][NMeDab(N,N-(CH2CF2CH2))]L[NMeV][NMeD]-Piperidide; lactam N-11), `CC[C@H](C)[C@@H]1NC(=O)[C@H](CC(C)C)N(C)C(=O)C[C@@H](C)N(C)C(=O)[C@H](CC(C)C)N(C)C(=O)C2(CCOCC2)NC(=O)[C@@H]2CCCN2C(=O)[C@H](CCc2ccc(C(F)(F)F)c(Cl)c2)NC(=O)CN(C)C(=O)[C@H](CC2CCCCC2)N(C)C(=O)CN(C)C(=O)CN(C)C1=O` [Compound 742] (cyclo(I[Sar][Sar][NMeCha][Sar][hPhe(3-Cl-4-CF3)]P[Thp][NMeL][NMedβ3hAla][NMeL])) is 1.8-fold lower in IC50: 30 nM for the first, 17 nM for the second.

Going from `CC[C@H](C)[C@@H]1NC(=O)[C@@H]2CCCCN2C(=O)C[C@@H](C)N(C)C(=O)[C@H](CC(C)C)NC(=O)C(C)(C)N(C)C(=O)[C@H](CC(C)C)NC(=O)[C@H](CCc2ccc(C(F)(F)F)c(F)c2)NC(=O)CN(C)C(=O)[C@H](CC2CCCCC2)N(C)C(=O)CN(C)C(=O)CN(C)C1=O` [Compound 649] (cyclo(I[Sar][Sar][NMeCha][Sar][hPhe(3-F,4-CF3)]L[NMeAib]L[NMedβ3hAla][Pip])) to `CC[C@H](C)[C@@H]1NC(=O)[C@H](C)N(C)C(=O)C[C@@H](C)NC(=O)[C@H](C2CCCC2)N(C)C(=O)C2(CCCC2)NC(=O)[C@@H]2CCCN2C(=O)[C@H](CCc2ccc(C(F)(F)F)c(Cl)c2)NC(=O)[C@H]2CCCN2C(=O)[C@H](CC2CCCCC2)N(C)C(=O)[C@@H]2CCN2C(=O)CN(C)C1=O` [Compound 1479] (cyclo([Ac5c][NMeGly(cPent)][d(β3hA)][NMeA]I[Sar][Aze][NMeCha][dP][hPhe(3-Cl-4-CF3)]P)), the IC50 falls from 360 nM to 120 nM (3-fold).

In the case of `CC[C@H](C)[C@@H]1NC(=O)[C@H](C)N(C)C(=O)C[C@@H](C(=O)N(C)C)N(C)C(=O)[C@H]([C@@H](C)CC)N(C)C(=O)C2(CCCC2)NC(=O)[C@H](Cc2ccccc2Cl)N(C)C(=O)[C@H](CCc2ccc(C(F)(F)F)c(Cl)c2)NC(=O)CN(C)C(=O)[C@H](Cc2ccc(C)cc2)N(C)C(=O)[C@@H]2CCN2C(=O)[C@H](C)N(C)C1=O` [Compound 2011] ([NMeA]I[NMeA][Aze][NMePhe(4-Me)][Sar][hPhe(3-Cl-4-CF3)][NMePhe(2-Cl)][Ac5c][NMeI][NMeD]-NMe2; lactam N-11), the IC50 is reported as 17 nM.
